# Test results reported in ChEMBL document CHEMBL1201862, “PubChem BioAssay data set” (2004).
#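 Exposure lasted 48 hours, with cells grown in 96-well plates and compounds tested at five concentrations. At the GI50, growth is halved.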 Activity calls are given as the source filed them. No stated cut-off is given here; in the data, active = GI50 up to about 1.1 µM and inactive = higher.
# What was measured:
# Test in all cases: NCI anticancer screen, dose series, 48 h
# [1] = tested on: NCI-H522
# [2] = tested on: K562
# [3] = tested on: NCI-H23
# [4] = tested on: NCI-H460
# [5] = tested on: SK-MEL-2
# [6] = tested on: DU-145
# [7] = tested on: A549
# [8] = tested on: SK-MEL-28
# [9] = tested on: RPMI-8226
# [10] = tested on: UACC-62
# [11] = tested on: Malme-3M
# [12] = tested on: HCT-15
# [13] = tested on: HT-29
# [14] = tested on: CCRF-CEM
# [15] = tested on: PC-3
# [16] = tested on: HOP-62
# [17] = tested on: NCI-H226
# [18] = tested on: Hs-578T
# [19] = tested on: LOX IMVI
# [20] = tested on: HL-60
# [21] = tested on: KM12
# [22] = tested on: M14
# [23] = tested on: IGROV-1
# [24] = tested on: MCF7
# [25] = tested on: HCC 2998
# [26] = tested on: UACC-257
# [27] = tested on: OVCAR-4
# [28] = tested on: TK-10
# [29] = tested on: SF-268
# [30] = tested on: SK-MEL-5
# [31] = tested on: SF-539
# [32] = tested on: SK-OV-3
# [33] = tested on: A498
# [34] = tested on: COLO 205
# [35] = tested on: SF-295
# [36] = tested on: OVCAR-3
# [37] = tested on: HCT-116
# [38] = tested on: 786-0
# [39] = tested on: CAKI-1
# [40] = tested on: SN12C
# [41] = tested on: MDA-N
# [42] = tested on: SW-620
# [43] = tested on: ACHN
# [44] = tested on: EKVX
# [45] = tested on: MDA-MB-435
# [46] = tested on: T47D
# [47] = tested on: U-251
# [48] = tested on: OVCAR-5
# [49] = tested on: UO-31
# [50] = tested on: SR
# [51] = tested on: RXF 393
# [52] = tested on: MOLT-4
# [53] = tested on: NCI/ADR-RES
# [54] = tested on: SNB-19
# [55] = tested on: OVCAR-8
# [56] = tested on: MDA-MB-231
# [57] = tested on: HOP-92
# [58] = tested on: SNB-75
compound,measurement,setting,value
COc1ccc(/C=C/c2ccnc3ccccc23)cc1OC,GI50,[1],5.65 µM (inactive)
same,GI50,[2],9.79 µM (inactive)
same,GI50,[3],14.9 µM (inactive)
same,GI50,[4],15.2 µM (inactive)
same,GI50,[5],19.4 µM (inactive)
same,GI50,[6],13.7 µM (inactive)
same,GI50,[7],15.1 µM (inactive)
same,GI50,[8],17.5 µM (inactive)
same,GI50,[9],28.1 µM (inactive)
same,GI50,[10],14.9 µM (inactive)
same,GI50,[11],16.9 µM (inactive)
same,GI50,[12],15.2 µM
same,GI50,[13],12.4 µM (inactive)
same,GI50,[14],13.2 µM (inactive)
same,GI50,[15],15.8 µM (inactive)
same,GI50,[16],15.1 µM (inactive)
same,GI50,[17],22.9 µM (inactive)
same,GI50,[18],18.1 µM (inactive)
same,GI50,[19],10 µM (inactive)
same,GI50,[20],11.3 µM (inactive)
same,GI50,[21],14.7 µM (inactive)
same,GI50,[22],20 µM (inactive)
same,GI50,[23],15.5 µM (inactive)
same,GI50,[24],6.82 µM (inactive)
same,GI50,[25],39 µM (inactive)
same,GI50,[26],21.2 µM (inactive)
same,GI50,[27],12.3 µM (inactive)
same,GI50,[28],15.6 µM (inactive)
same,GI50,[29],14 µM (inactive)
same,GI50,[30],14.8 µM (inactive)
same,GI50,[31],15.8 µM (inactive)
same,GI50,[32],27.7 µM (inactive)
same,GI50,[33],11.5 µM (inactive)
same,GI50,[34],12.6 µM (inactive)
same,GI50,[35],13.8 µM (inactive)
same,GI50,[36],12.5 µM (inactive)
same,GI50,[37],12.6 µM (inactive)
same,GI50,[38],44.3 µM (inactive)
same,GI50,[39],15.8 µM (inactive)
same,GI50,[40],17.9 µM (inactive)
same,GI50,[41],14.1 µM (inactive)
same,GI50,[42],15.7 µM (inactive)
same,GI50,[43],24.2 µM (inactive)
same,GI50,[44],14.6 µM (inactive)
same,GI50,[45],15.1 µM (inactive)
same,GI50,[46],11.7 µM (inactive)
same,GI50,[47],46.9 µM (inactive)
same,GI50,[48],12.9 µM (inactive)
same,GI50,[49],0.186 µM (active)
same,GI50,[50],25.5 µM (inactive)
same,GI50,[51],13.1 µM (inactive)
same,GI50,[52],19.1 µM (inactive)
same,GI50,[53],14 µM (inactive)
same,GI50,[54],17.4 µM (inactive)
C=C(C)[C@@H]1CCC2=C[C@H](OC2=O)[C@@]2(C)C[C@@H]2C2=CC(C)=C(O2)[C@H]1O,GI50,[55],25.1 µM (inactive)
same,GI50,[56],28.2 µM (inactive)
same,GI50,[1],15.1 µM (inactive)
same,GI50,[2],> 75 µM (inactive)
same,GI50,[3],25.9 µM (inactive)
same,GI50,[4],54.3 µM (inactive)
same,GI50,[5],40.8 µM (inactive)
same,GI50,[6],37.3 µM (inactive)
same,GI50,[7],39 µM (inactive)
same,GI50,[8],46 µM (inactive)
same,GI50,[10],41.1 µM (inactive)
same,GI50,[11],48.9 µM (inactive)
same,GI50,[12],36.4 µM
same,GI50,[13],23 µM (inactive)
same,GI50,[14],37.4 µM (inactive)
same,GI50,[15],33.9 µM (inactive)
same,GI50,[16],> 75 µM (inactive)
same,GI50,[17],27.7 µM (inactive)
same,GI50,[19],27.1 µM (inactive)
same,GI50,[20],46.6 µM (inactive)
same,GI50,[21],25.5 µM (inactive)
same,GI50,[22],68.4 µM (inactive)
same,GI50,[23],21.3 µM (inactive)
same,GI50,[57],> 75 µM (inactive)
same,GI50,[24],53.2 µM (inactive)
same,GI50,[25],> 75 µM (inactive)
same,GI50,[26],39.1 µM (inactive)
same,GI50,[27],42.2 µM (inactive)
same,GI50,[58],35.5 µM (inactive)
same,GI50,[28],38.7 µM (inactive)
same,GI50,[29],30.7 µM (inactive)
same,GI50,[31],49.8 µM (inactive)
same,GI50,[32],54.5 µM (inactive)
same,GI50,[33],> 75 µM (inactive)
same,GI50,[34],33.2 µM (inactive)
same,GI50,[35],33.3 µM (inactive)
same,GI50,[36],43.4 µM (inactive)
same,GI50,[37],22.3 µM (inactive)
same,GI50,[38],21.8 µM (inactive)
same,GI50,[39],21.5 µM (inactive)
same,GI50,[40],25.5 µM (inactive)
same,GI50,[41],23.4 µM (inactive)
same,GI50,[42],> 75 µM (inactive)
same,GI50,[43],36.9 µM (inactive)
same,GI50,[44],36.8 µM (inactive)
same,GI50,[45],30.6 µM (inactive)
same,GI50,[46],28.1 µM (inactive)
same,GI50,[47],> 75 µM (inactive)
same,GI50,[48],> 75 µM (inactive)
same,GI50,[49],60.8 µM (inactive)
same,GI50,[50],> 75 µM (inactive)
same,GI50,[51],38.5 µM (inactive)
same,GI50,[52],24.8 µM (inactive)
same,GI50,[53],23.6 µM (inactive)
same,GI50,[54],> 75 µM (inactive)
CCN(CC)C(=S)SS(=O)(=O)c1ccc(N)cc1,GI50,[1],3.68 µM (inactive)
same,GI50,[2],39.5 µM (inactive)
same,GI50,[3],> 100 µM (inactive)
same,GI50,[4],87.1 µM (inactive)
same,GI50,[5],> 100 µM (inactive)
same,GI50,[7],14.5 µM (inactive)
same,GI50,[9],22.8 µM (inactive)
same,GI50,[10],39.4 µM (inactive)
same,GI50,[13],> 100 µM (inactive)
same,GI50,[16],> 58.2 µM (inactive)
same,GI50,[18],> 91 µM (inactive)
same,GI50,[21],29.6 µM (inactive)
same,GI50,[22],70 µM (inactive)
same,GI50,[23],4.91 µM (inactive)
same,GI50,[57],> 23.1 µM (inactive)
same,GI50,[24],7.29 µM (inactive)
same,GI50,[25],> 29.1 µM (inactive)
same,GI50,[30],15.2 µM (inactive)
same,GI50,[32],> 100 µM (inactive)
same,GI50,[33],> 40.2 µM (inactive)
same,GI50,[39],> 46.9 µM (inactive)
same,GI50,[41],70.5 µM (inactive)
same,GI50,[43],> 78.3 µM (inactive)
same,GI50,[44],> 100 µM (inactive)
same,GI50,[46],76.7 µM (inactive)
same,GI50,[48],> 100 µM (inactive)
same,GI50,[49],> 89.5 µM (inactive)
same,GI50,[50],3.41 µM (inactive)
same,GI50,[51],31.8 µM (inactive)
same,GI50,[52],2.3 µM (inactive)
same,GI50,[54],> 100 µM (inactive)
Nc1nc(N)c2c(CCc3ccc(C(=O)N[C@@H](CCC(=O)O)C(=O)O)cc3)ccnc2n1,GI50,[55],< 0.01 µM (active)
same,GI50,[56],> 100 µM (inactive)
same,GI50,[1],0.0855 µM (active)
same,GI50,[2],< 0.01 µM (active)
same,GI50,[3],< 0.0308 µM (active)
same,GI50,[4],< 0.01 µM (active)
same,GI50,[5],> 28.8 µM (inactive)
same,GI50,[6],0.055 µM (active)
same,GI50,[7],0.0731 µM (active)
same,GI50,[8],> 88.9 µM (inactive)
same,GI50,[9],< 0.0145 µM (active)
same,GI50,[10],< 0.0169 µM (active)
same,GI50,[12],< 0.0232 µM
same,GI50,[13],< 0.0294 µM (active)
same,GI50,[15],17.7 µM (inactive)
same,GI50,[17],> 100 µM (inactive)
same,GI50,[18],52 µM (inactive)
same,GI50,[19],< 0.01 µM (active)
same,GI50,[20],< 0.01 µM (active)
same,GI50,[21],< 0.0283 µM (active)
same,GI50,[22],< 0.0218 µM (active)
same,GI50,[23],0.029 µM (active)
same,GI50,[57],1.21 µM (inactive)
same,GI50,[24],< 0.01 µM (active)
same,GI50,[25],< 0.01 µM (active)
same,GI50,[26],0.257 µM (active)
same,GI50,[58],0.323 µM (active)
same,GI50,[28],0.0363 µM (active)
same,GI50,[29],0.0308 µM (active)
same,GI50,[30],0.0855 µM (active)
same,GI50,[31],< 0.0145 µM (active)
same,GI50,[32],0.0628 µM (active)
same,GI50,[33],0.541 µM (active)
same,GI50,[34],1.27 µM (inactive)
same,GI50,[35],0.148 µM (active)
same,GI50,[36],0.0365 µM (active)
same,GI50,[37],< 0.01 µM (active)
same,GI50,[39],< 0.0116 µM (active)
same,GI50,[40],< 0.0297 µM (active)
same,GI50,[41],< 0.0129 µM (active)
same,GI50,[43],< 0.0236 µM (active)
same,GI50,[44],> 100 µM (inactive)
same,GI50,[45],< 0.01 µM (active)
same,GI50,[46],75.5 µM (inactive)
same,GI50,[49],0.0164 µM (active)
same,GI50,[51],0.0465 µM (active)
same,GI50,[52],< 0.05 µM (active)
same,GI50,[53],< 0.0211 µM (active)
same,GI50,[54],0.912 µM (active)
